Data as given in PMC8777764, “Design, Synthesis, Biological Evaluation, and Molecular Modeling of 2-Difluoromethylbenzimidazole Derivatives as Potential PI3Kα Inhibitors” (Molecules, 2022).

Molecular target: T1, PI3Kα (Homo sapiens, UniProt P42336)
T1 construct: gene PIK3CA
Experiment: Kinase-Glo Plus luminescence kinase assay, […] ATP
Format: biochemical

T1 sequence (P42336 whole entry): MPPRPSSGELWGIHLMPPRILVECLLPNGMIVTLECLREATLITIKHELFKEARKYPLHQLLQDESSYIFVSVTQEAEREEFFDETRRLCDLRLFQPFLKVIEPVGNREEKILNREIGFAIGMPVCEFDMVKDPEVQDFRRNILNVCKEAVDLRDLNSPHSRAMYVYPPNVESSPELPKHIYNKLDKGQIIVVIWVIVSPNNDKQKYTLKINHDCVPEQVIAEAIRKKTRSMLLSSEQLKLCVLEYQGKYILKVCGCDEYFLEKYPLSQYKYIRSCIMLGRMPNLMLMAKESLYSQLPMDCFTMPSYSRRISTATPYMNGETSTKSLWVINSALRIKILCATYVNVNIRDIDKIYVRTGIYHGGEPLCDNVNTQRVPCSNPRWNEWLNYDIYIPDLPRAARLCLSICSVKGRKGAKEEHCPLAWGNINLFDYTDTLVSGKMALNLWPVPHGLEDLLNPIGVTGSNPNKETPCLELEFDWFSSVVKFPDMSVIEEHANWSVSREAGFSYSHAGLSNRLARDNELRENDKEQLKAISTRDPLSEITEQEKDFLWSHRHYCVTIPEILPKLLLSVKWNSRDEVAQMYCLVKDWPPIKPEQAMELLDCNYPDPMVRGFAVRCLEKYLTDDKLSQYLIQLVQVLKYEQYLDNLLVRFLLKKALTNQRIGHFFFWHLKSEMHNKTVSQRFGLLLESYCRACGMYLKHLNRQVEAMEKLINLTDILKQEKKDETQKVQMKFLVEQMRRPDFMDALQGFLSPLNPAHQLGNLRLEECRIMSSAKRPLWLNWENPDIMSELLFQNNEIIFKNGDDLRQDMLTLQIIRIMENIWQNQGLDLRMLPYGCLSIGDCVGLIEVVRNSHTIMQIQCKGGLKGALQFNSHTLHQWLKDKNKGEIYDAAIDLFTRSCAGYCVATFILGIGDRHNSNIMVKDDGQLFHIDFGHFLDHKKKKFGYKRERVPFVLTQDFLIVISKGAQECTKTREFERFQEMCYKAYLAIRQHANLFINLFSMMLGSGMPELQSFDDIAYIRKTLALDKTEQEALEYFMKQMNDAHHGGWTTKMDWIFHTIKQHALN

COc1cccc2c1nc(C(F)(F)F)n2-c1nc(N2CCOCC2)nc(N(C)C2CCN(S(C)(=O)=O)CC2)n1 [compound 86, 4-(4-Methoxy-2-(trifluoromethyl)-1H-benzo[d]imidazol-1-yl)-N-methyl-N-(1-(methylsulfonyl)piperidin-4-yl)-6-morpholino-1,3,5-triazin-2-amine]
IC50: 22.8 ± 0.4 nM

CCOc1cccc2c1nc(C(F)(F)F)n2-c1nc(N2CCOCC2)nc(N(C)C2CCN(S(C)(=O)=O)CC2)n1 [compound 87, 4-(4-Ethoxy-2-(trifluoromethyl)-1H-benzo[d]imidazol-1-yl)-N-methyl-N-(1-(methylsulfonyl)piperidin-4-yl)-6-morpholino-1,3,5-triazin-2-amine]
IC50: 33.6 ± 2.7 nM
